The subject of data set [1] is Mper1-luc Rat-1 (P2C4) fibroblasts. Briefly: Circadian cell assay (mPer1 luciferase reporter, period prolongation). The conditions noted are these: effective concentration that induced a 1-hour prolongation of the circadian period, interpolated from hyperbolic curve. In kind it is cell-based. On the procedure: Mper1-luc Rat-1 (P2C4) fibroblast cultures were prepared by dividing the cultures every 3-4 days (approximately 10-20% of confluence) on 150 cm^2 degassed polystyrene tissue culture flasks (Falcon® #35-5001) and maintained in growth medium [EMEM (Cellgro #10-0,0-CV); 10% foetal bovine serum (FBS; Gibco #16000-044); and 50 I.U./ml of penicillin-streptomycin (Cellgro #30-001-CI)] at 37° C. and under 5% CO2.
Cells obtained from Rat-1 fibroblast cultures at 30-50% of confluence as described above were co-transfected with vectors containing the selection marker for resistance to zeocin for a stable transfection and a luciferase reporter gene controlled by the mPer-1 promoter. After 24 to 48 hours, the cultures were divided on 96-well plates and maintained in growth medium supplemented with 50-100 μg/ml of zeocin (Invitrogen® #45-0430) for 10-14 days. The zeocin-resistant stable transfectants were evaluated for the expression of the reporter by adding 100 μM luciferin (Promega® #E1603®) to the growth medium and by assaying the luciferase activity on a TopCount® scintillation counter (Packard Model #C384V00). The Rat-1 cell clones expressing both zeocin resistance and lucerifase activity controlled by mPer1 were serum-shock synchronized with 50% horse serum [HS (Gibco® #16050-122)] and the activity of the circadian reporter was evaluated. The P2C4 clone of Mper1-luc Rat-1 fibroblasts was selected to test the compound.
Mper1-luc Rat-1 (P2C4) fibroblasts at 40-50% of confluence, obtained according to the protocol described above, were plated out onto 96-well opaque tissue culture plates (Perkin Elmer® #6005680). The cultures are maintained in growth medium supplemented with 100 μg/ml of zeocin (Invitrogen #45-0430) until they reach 100% of confluence (48-72 h). The cultures were then synchronized with 100 μl of synchronization medium [EMEM (Cellgro #10-0,0-CV); 100 I.U./ml of penicillin-streptomycin (Cellgro #30-001-C1); 50% HS (Gibco #16050-122)] for 2 hours at 37° C. and under 5% CO2. After synchronization, the cultures were rinsed with 100 μl of EMEM (Cellgro #10-010-CV) for 10 minutes at ambient temperature. After rinsing, the medium was replaced with 300 μl of CO2 independent medium [CO2I (Gibco #18045-088); 2 mM L-glutamine (Cellgro #25-005-C1); 100 U.I./ml of penicillin-streptomycin (Cellgro #30-001-C1); 100 μM luciferin (Promega #E 1603)]. […]
The two methods produced a virtually identical period estimation on a range of circadian periods. […] The data were analysed by adjusting a hyperbolic curve to the data expressed as change of period (y-axis) as a function of the concentration of the test compound (x-axis) in the XLfit™ software and the CE Delta (t+1 h) was interpolated from this curve.

Data set [2] concerns the target T1, casein kinase 1 epsilon (CK1 epsilon) (Homo sapiens, UniProt P49674).
T1 construct: Invitrogen Corporation (alternative)
Briefly: Filter-plate assay of ATP-33P, inhibition of phosphorylation of casein by CK1 epsilon. The data set is classed as biochemical. The conditions noted are these: ATP-33P filtration, cold ATP 10 μM final, 2 hours at ambient temperature, read-out: CK1 epsilon Cl50. As for the experimental part:
The capacity of the compounds of the invention to inhibit the phosphorylation of casein by casein kinase 1 epsilon and delta may be evaluated according to the procedure described in US 2005/0131012.
Filter-Plate Assay of ATP-^33P for the Screening of CK1 Epsilon Inhibitors:
The effect of the compounds on inhibition of the phosphorylation of casein by the enzyme casein kinase 1 epsilon (CK1 epsilon) is measured, using a casein assay with filtration of ATP-^33P in vitro.
Casein kinase 1 epsilon (0.58 mg/ml) is obtained via fermentation and purification processes performed according to methods that are well known to those skilled in the art, or may also be obtained from Invitrogen Corporation™ (human CK1 epsilon).
The compounds are tested at five different concentrations so as to generate IC50 values, i.e. the concentration at which a compound is capable of inhibiting the enzymatic activity by 50%, or alternatively the percentage of inhibition at a concentration of 10 micromolar.
“U”-bottomed Falcon plates are prepared by placing 5 μl of solutions of the compounds according to the invention at concentrations of 10, 1, 0.1, 0.01 or 0.001 μM in different wells. The solutions of the compounds according to the invention at these various concentrations are prepared by diluting in a test buffer (50 mM Tris, pH 7.5, […], 2 mM DTT and 1 mM EGTA) a stock solution in DMSO at a concentration of 10 mM. Next, 5 μl of dephosphorylated casein are added to a final concentration of 0.2 μg/μl, 20 μl of CK1 epsilon to a final concentration of 3 ng/μl, and 20 μl of ATP-^33P to a final concentration of 0.02 μCi/μl mixed with cold ATP (10 μM final—approximately 2×10^6 CPM per well). The final total test volume per well is equal to 50 μl.
The “U”-bottomed Falcon® test plate mentioned above is vortexed, and then incubated at ambient temperature for 2 hours. After 2 hours, the reaction is stopped by adding an ice-cold solution of 65 μl of ATP (2 mM) prepared in test buffer.
100 μl of the reaction mixture are then transferred from the “U”-bottomed Falcon® plate into Millipore® MAPH filter plates, preimpregnated with 25 μl of ice-cold 100% TCA. […]
The plates are left to dry overnight at ambient temperature. […] The radiation emitted by each well is then measured for 2 minutes in a Packard® Topcount NXT scintillation counter, in which the values of CPM/well are measured.
The percentage inhibition of the capacity of the enzyme to phosphorylate the substrate (casein) is determined for each concentration of compound tested. These inhibition data expressed as percentages are used to calculate the IC50 value for each compound compared with the controls.
The kinetic studies determined the KM value for ATP as being 21 μM in this test system.

In another data set the target is T2, human CK1 delta (Homo sapiens, UniProt P48730).
T2 construct: purchased Invitrogen Corporation PV3665
T2 sequence (P48730 whole entry): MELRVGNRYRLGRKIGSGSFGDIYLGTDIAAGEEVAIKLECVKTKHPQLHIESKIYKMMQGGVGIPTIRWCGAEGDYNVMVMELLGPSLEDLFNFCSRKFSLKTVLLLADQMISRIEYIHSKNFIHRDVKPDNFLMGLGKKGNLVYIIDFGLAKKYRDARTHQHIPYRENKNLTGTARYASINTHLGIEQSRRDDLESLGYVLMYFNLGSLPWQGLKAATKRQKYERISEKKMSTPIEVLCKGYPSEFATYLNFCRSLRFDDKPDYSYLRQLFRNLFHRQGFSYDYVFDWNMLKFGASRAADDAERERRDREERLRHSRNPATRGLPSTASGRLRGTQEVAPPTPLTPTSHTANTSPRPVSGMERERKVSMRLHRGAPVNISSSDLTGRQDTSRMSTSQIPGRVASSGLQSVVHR
Briefly: FRET Z'Lyte kinase assay, CK1 delta. The data set is classed as biochemical. The conditions noted are these: peptide substrate SER/THR 11 2 μM, ATP 4 times the KM, read-out: CK1 delta Cl50. From the text:
The capacity of the compounds of the invention to inhibit the phosphorylation of casein by casein kinase 1 epsilon and delta may be evaluated using a FRET (Fluorescence Resonance Energy Transfer) fluorescence test with the aid of the Z'Lyte™ kinase assay Kit (reference PV3670; Invitrogen Corporation™) according to the manufacturer's instructions.
The casein kinases 1 used are obtained from Invitrogen Corporation (human CK1 epsilon PV3500 and human CK1 delta PV3665).
A peptide substrate, labelled at both ends with a fluorophore donor group (coumarin) and a fluorophore acceptor group (fluorescein), constituting a FRET system is phosphorylated in the presence of ATP by casein kinase 1 epsilon or delta in the presence of increasing concentrations of compounds of the invention.
The mixture is treated with a site-specific protease that specifically cleaves the peptide substrate to form two fluorescent fragments having a large fluorescence emission ratio.
The fluorescence observed is thus related to the capacity of the products of the invention to inhibit the phosphorylation of the peptide substrate by casein kinase 1 epsilon or casein kinase 1 delta. […]
The emitted fluorescence is measured at wavelengths of 445 and 520 nm (excitation at 400 nm).

T1 sequence (P49674 whole entry): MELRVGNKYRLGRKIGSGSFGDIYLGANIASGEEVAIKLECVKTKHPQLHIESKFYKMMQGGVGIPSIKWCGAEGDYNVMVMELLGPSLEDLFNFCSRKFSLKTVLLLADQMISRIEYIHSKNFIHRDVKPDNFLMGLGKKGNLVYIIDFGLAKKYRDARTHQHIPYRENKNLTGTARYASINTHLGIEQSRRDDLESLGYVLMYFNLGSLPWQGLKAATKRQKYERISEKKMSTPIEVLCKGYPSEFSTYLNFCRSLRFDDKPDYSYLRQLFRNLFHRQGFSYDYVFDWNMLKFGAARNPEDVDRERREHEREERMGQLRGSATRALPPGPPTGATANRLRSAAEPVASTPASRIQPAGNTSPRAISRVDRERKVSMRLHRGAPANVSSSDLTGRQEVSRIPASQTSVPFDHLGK

What is called melting point is the temperature, or range, at which the solid turns liquid. `Cc1nc2ccc(N3CC4CNCC4C3)nn2c1-c1ccncc1` (centres unmarked) [Compound 66, 6-Hexahydropyrrolo[3,4-c]pyrrol-2(1H)-yl-2-methyl-3-pyridin-4-ylimidazo[1,2-b]pyridazine] came in with a melting point of 153 to 155 °C. The “CE Delta (t + 1 h)” value in data set [1] is 633 nM. Moreover, in data set [2], the IC50 worked out at 13 nM.
`CC1(C)CN(c2ccc3nc(C4CC4)c(-c4ccnc(F)c4)n3n2)CCN1` [Compound 53, 2-Cyclopropyl-6-(3,3-dimethylpiperazin-1-yl)-3-(2-fluoropyridin-4-yl)imidazo[1,2-b]pyridazine]: the “CE Delta (t + 1 h)” value in data set [1] was found to be 319 nM. The IC50 in data set [2] stood at 292 nM.
Taken in the same sequence, the figures for `Cc1nc2ccc(N3CCC4(CCCNC4)CC3)nn2c1-c1ccncc1` [Compound 78, 9-(2-Methyl-3-pyridin-4-yl-imidazo[1,2-b]pyridazin-6-yl)-2,9-diazaspiro[5.5]undecane] were 515 nM and 78 nM.
As for `Cc1nc2ccc(N3C[C@@H](C)N[C@@H](C)C3)nn2c1-c1ccncc1` [Compound 54, 6-(cis-3,5-Dimethylpiperazin-1-yl)-2-methyl-3-pyridin-4-ylimidazo[1,2-b]pyridazine], on human CK1 delta, the IC50 is under 1 nM.

For the origin of these results see patent publication US20110312934A1, “2-ALKYL-6-CYCLOAMINO-3-(PYRIDIN-4-YL)IMIDAZO[1,2-B]-PYRIDAZINE DERIVATIVES, PREPARATION THEREOF, AND THERAPEUTIC APPLICATION THEREOF” (SANOFI-AVENTIS, priority 2008, published 2011).
